Source: ChEMBL document CHEMBL5291721, “A preclinical secondary pharmacology resource illuminates target-adverse drug reaction associations of marketed drugs” (Nat Commun, 2023)

Experiments:
[1] = biological target: T1, 5-hydroxytryptamine receptor 1A (Homo sapiens, UniProt P08908)
T1 sequence (P08908 whole entry): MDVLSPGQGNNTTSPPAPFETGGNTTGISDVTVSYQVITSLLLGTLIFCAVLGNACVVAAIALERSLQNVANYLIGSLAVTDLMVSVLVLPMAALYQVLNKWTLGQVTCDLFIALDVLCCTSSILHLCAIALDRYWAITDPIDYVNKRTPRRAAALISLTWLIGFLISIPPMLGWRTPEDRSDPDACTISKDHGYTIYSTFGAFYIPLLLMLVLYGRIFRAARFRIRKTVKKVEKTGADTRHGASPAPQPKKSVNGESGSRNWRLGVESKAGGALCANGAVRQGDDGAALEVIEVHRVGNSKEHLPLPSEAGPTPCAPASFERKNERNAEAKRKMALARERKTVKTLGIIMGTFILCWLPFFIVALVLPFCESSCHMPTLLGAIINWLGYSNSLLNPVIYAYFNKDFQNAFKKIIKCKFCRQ

[2] = biological target: T2, Retinoic acid receptor beta (Homo sapiens, UniProt P10826); type: functional, cell-based
T2 sequence (P10826 whole entry): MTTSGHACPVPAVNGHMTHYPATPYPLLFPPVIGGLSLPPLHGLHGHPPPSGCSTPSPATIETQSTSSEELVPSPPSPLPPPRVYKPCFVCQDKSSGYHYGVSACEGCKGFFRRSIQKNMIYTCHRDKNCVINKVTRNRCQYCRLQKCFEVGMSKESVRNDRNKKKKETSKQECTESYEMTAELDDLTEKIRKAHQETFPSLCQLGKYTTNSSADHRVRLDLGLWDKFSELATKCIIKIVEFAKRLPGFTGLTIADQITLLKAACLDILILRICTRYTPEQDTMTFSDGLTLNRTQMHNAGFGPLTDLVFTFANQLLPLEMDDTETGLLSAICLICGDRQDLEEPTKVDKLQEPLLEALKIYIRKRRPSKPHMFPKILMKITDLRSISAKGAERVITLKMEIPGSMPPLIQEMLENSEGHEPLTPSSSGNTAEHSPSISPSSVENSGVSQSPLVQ

[3] = biological target: T3, Bile acid receptor (Homo sapiens, UniProt Q96RI1); type: functional
T3 sequence (Q96RI1 whole entry): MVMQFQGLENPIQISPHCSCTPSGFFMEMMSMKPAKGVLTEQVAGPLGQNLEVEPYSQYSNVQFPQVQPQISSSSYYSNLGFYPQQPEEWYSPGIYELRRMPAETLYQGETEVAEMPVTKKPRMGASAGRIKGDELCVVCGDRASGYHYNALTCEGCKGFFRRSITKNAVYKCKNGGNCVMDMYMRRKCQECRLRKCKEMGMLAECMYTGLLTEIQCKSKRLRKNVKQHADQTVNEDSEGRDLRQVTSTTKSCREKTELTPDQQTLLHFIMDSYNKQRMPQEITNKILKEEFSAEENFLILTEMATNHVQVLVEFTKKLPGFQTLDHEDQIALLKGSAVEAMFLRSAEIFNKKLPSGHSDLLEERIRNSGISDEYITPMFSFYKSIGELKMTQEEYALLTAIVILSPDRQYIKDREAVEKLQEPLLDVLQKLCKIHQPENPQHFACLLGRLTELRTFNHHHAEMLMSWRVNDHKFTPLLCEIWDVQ

[4] = biological target: T4, Oxysterols receptor LXR-beta (Homo sapiens, UniProt P55055); type: functional
T4 sequence (P55055 whole entry): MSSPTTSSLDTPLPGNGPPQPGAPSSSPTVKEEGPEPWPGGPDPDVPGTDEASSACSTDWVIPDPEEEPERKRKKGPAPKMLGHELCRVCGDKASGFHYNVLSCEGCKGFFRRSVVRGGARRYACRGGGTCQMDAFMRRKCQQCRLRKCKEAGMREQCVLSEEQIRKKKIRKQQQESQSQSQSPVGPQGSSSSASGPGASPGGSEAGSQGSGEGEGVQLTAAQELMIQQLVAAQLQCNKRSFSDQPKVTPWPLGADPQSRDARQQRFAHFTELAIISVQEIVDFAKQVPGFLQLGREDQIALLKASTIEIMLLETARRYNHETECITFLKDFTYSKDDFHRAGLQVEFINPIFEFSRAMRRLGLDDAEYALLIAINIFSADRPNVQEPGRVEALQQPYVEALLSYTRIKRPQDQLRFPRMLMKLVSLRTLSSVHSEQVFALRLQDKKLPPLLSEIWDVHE

[5] = biological target: T5, Oxysterols receptor LXR-alpha (Homo sapiens, UniProt Q13133); type: functional
T5 sequence (Q13133 whole entry): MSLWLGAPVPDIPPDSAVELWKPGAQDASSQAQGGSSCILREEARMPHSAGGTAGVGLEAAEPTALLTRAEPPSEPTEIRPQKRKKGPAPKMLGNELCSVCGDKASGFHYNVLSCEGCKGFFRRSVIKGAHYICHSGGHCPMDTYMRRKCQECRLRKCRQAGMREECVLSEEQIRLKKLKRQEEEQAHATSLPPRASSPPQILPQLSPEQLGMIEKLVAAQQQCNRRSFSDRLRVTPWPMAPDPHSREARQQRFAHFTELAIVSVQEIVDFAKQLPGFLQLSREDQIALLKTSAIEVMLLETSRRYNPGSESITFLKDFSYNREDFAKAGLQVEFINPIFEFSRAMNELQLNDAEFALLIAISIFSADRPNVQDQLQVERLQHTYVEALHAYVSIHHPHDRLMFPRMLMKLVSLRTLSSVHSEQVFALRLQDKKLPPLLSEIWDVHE

[6] = biological target: T6, Retinoic acid receptor gamma (Homo sapiens, UniProt P13631); type: functional, cell-based
T6 sequence (P13631 whole entry): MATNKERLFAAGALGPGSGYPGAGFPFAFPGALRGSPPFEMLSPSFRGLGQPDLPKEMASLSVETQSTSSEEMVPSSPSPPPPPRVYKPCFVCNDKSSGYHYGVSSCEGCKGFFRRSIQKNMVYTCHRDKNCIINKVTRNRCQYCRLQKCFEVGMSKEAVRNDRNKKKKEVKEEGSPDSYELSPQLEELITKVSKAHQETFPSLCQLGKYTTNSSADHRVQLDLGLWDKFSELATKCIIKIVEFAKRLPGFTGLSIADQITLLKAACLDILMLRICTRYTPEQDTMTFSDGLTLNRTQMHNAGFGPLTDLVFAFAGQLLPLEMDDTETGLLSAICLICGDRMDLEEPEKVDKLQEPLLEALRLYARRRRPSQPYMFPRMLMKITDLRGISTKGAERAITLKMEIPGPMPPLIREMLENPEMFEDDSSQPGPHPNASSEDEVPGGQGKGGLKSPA

[7] = biological target: T6, Retinoic acid receptor gamma; type: functional, cell-based; remark: listed apart in the source

Measured: AC50
Further: assay procedure not described here.

O=C(OCC(O)CO)c1ccccc1Nc1ccnc2cc(Cl)ccc12 (centres undefined) [GLAFENINE]
> 30 µM: [1]

CN1C(C(=O)Nc2ccccn2)=C(O)c2sc(Cl)cc2S1(=O)=O [LORNOXICAM]
not listed: [1]
> 30 µM: all other assays above

Cc1c(C(=O)NN2CCCCC2)nn(-c2ccc(Cl)cc2Cl)c1-c1ccc(Cl)cc1 [RIMONABANT]
not listed: [1]
> 30 µM: all other assays above

Cc1cn([C@H]2C=C[C@@H](CO)O2)c(=O)[nH]c1=O [STAVUDINE]
> 30 µM: [1]
